In US20060030537A1, “Ceramide kinase and uses thereof” (priority 2004, published 2006):

Columns and labels:
ceramide kinase mRNA = test: RT-PCR of ceramide kinase mRNA in A549 cells; assay type: cell-based, human; conditions: 26 hours after transfection, normalized to 18s ribosomal RNA
Experimental: FIGS. 6A-6B. Ceramide kinase RNAi downregulates endogenous ceramide kinase activity and mRNA levels. FIG. 6A. The effect of ceramide kinase RNAi on endogenous ceramide kinase activity. A549 cells (5×10^4) were transfected with the 21-nucleotide duplexes for ceramide kinase or scrambled control sequence. Following the 4 hour transfection, cells incubated in normal growth media for 26 hours. Cells were then washed, lysed in assay buffer, and assayed for ceramide kinase activity. Data are presented as % control ceramide kinase activity with control RNAi (Control) or ceramide kinase RNAi (CerK RNAi). Data are representative of three separate determinations on two separate occasions. FIG. 6B. The effect of ceramide kinase RNAi on the mRNA levels of ceramide kinase. Following the same procedure as outlined in FIG. 6A, total RNA was extracted and analyzed via logarithmic reverse-transcriptase polymerase chain reaction for human ceramide kinase and 18s ribosomal RNA. Data are presented as percent control after the densitometry of ceramide kinase mRNA was normalized to 18s ribosomal RNA levels with control RNAi (Control) or ceramide kinase RNAi (CerK RNAi). Data are representative of three separate determinations on two separate occasions. […]

L929 fibroblasts = test: AA release in L929 fibroblasts; assay type: cell-based
Experimental: FIGS. 3A-3B. FIG. 3A. The effects of ceramide-1-phosphate on TXB2 synthesis. A549 cells (1×10^5) were treated with D-e-C16 ceramide-1-phosphate (1 μM) solubilized in 2% dodecane/98% ethanol (final concentration in treatments was 0.002% dodecane/0.098% ethanol (EtOH)) for the indicated times. The results are presented as % control of TXB2 controlled for equivalent number of cells by MTT assay. Data are representative of 3 separate determinations on 2 separate occasions. FIG. 3B. The effects of ceramide-1-phosphate on AA release and PGE2 synthesis in L929 fibroblasts. L929 cells (5×10^4) were labeled overnight with 5 μCi/mL [^3H]-arachidonic acid (5 nM). Cells were washed and placed in DMEM supplemented with 2% fetal bovine serum for two hours. […]
Quantification of arachidonic acid (AA) release: A549 cells (5×10^4) were labeled overnight with 5 μCi/mL [^3H]-AA (5 nM) (NEN). […] Following treatment, media was transferred to 1.5 mL polypropylene tubes, centrifuged at 10,000×g, and ^3H-AA cpm determined by scintillation counting. Results were controlled for equivalent number of cells quantified by MTT assay as described (Chalfant, C. E., Rathman, K., Pinkerman, R. L., Wood, R. E., Obeid, L. M., Ogretmen, B., and Hannun, Y. A. (2002) J. Biol. Chem. 277, 12587-12595) and by verification of total AA labeling by scintillation counting. […]

A549 cells [1] = test: Quantification of arachidonic acid (AA) release in A549 cells; assay type: cell-based
Experimental: Cell Culture: A549 lung adenocarcinoma cells (epithelial-derived) were grown in low glucose DMEM (Invitrogen) supplemented with L-glutamine, 10% (v/v) fetal bovine serum (Invitrogen), 200 U/ml of penicillin G sodium, and 200 μg/ml of streptomycin sulfate. Cells were maintained under 80% confluency and standard incubator conditions (humidified atmosphere, 95% air, 5% CO2, 370 C). For treatment, cells were incubated for 2 hours in low glucose DMEM (Invitrogen) supplemented with L-glutamine, 2% (v/v) fetal bovine serum (Invitrogen), 200 U/ml of penicillin G sodium, and 200 μg/ml of streptomycin sulfate prior to the addition of agonist.
Quantification of arachidonic acid (AA) release: A549 cells (5×10^4) were labeled overnight with 5 μCi/mL [^3H]-AA (5 nM) (NEN). Cells were washed and incubated in DMEM supplemented with 2% fetal bovine serum for 2 hours. Following treatment, media was transferred to 1.5 mL polypropylene tubes, centrifuged at 10,000×g, and ^3H-AA cpm determined by scintillation counting. Results were controlled for equivalent number of cells quantified by MTT assay as described (Chalfant, C. E., Rathman, K., Pinkerman, R. L., Wood, R. E., Obeid, L. M., Ogretmen, B., and Hannun, Y. A. (2002) J. Biol. Chem. 277, 12587-12595) and by verification of total AA labeling by scintillation counting. For the experiments in FIG. 4, purified SMase D was obtained from Dr. Alfred H. Merrill, Jr., and SMase C (purified from Bacillus cereus) was obtained commercially from Sigma.
RNAi design and transfections: Knock-downs of ceramide kinase were performed essentially as described using sequence specific siRNA reagents (http:www.mpibpc.gwdg.de/abteilungen/100/105/sirna.html) (Lassus, P., Opitz-Araya, X., and Lazebnik, Y. (2002) Science 297, 1352-1354) using human ceramide kinase RNAi starting 142 nucleotides from start codon ([…]dTd (SEQ ID NO: 3) and […]dTd (SEQ ID NO:4)). All sequences were evaluated against the database using the NIH blast program to test for specificity (Xeragon, A Qiagen Company). A549 cells (3×10^4) were transfected with the 21-nucleotide duplexes using OligofectAMINE (Invitrogen) as recommended by the manufacturer. Following the 4 hour transfection, cells were treated and assayed for AA release or PGE2 synthesis at 26 hours post-transfection.

A549 cells [2] = assay type: cell-based

## ceramide kinase RNAi: 21-nucleotide duplex, human ceramide kinase RNAi starting 142 nucleotides from start codon (SEQ ID NO: 3 and 4) (chain 1 UGCCUGCUCUGUGCCUGUATT; chain 2 UACAGGCACAGAGCAGGCATT; chemistry not given here)
Ceramide kinase mRNA
  decrease of ceramide kinase mRNA levels: 73%
L929 fibroblasts
  inhibition of AA release in response to IL-1β: over 60%
A549 cells [1]; A23187 1 μg/mL, 26 hours post-transfection
  inhibition of AA release in response to A23187: 72%
A549 cells [1]; C-1-P 2.5 μM for 5 hours
  AA release in response to C-1-P treatment: no effect
A549 cells [1]; IL-1β 2.5 ng/mL for 4 hours, 26 hours post-transfection
  inhibition of AA release in response to IL-1β: 78%
A549 cells [1]; IL-1β or A23187, read-out: IC50 of inhibition of agonist-induced AA release
  IC50: ~30 nM
A549 cells [2]
  effects on cell number: without effects
